Experimental data published in US9073895B2 (Boehringer Ingelheim International GmbH, priority 2010, dated 2015).

How the values were obtained:
[1] = system: synthesis of LTB4 in human whole blood; test: Human whole blood LTB4 production inhibition assay; type: cell-based; conditions: heparinized human whole blood, calcimycin 20 μM, plasma LTB4; read-out: HuWB IC50
Experimental: Compounds are additionally tested in a human whole blood assay to determine their ability to inhibit the synthesis of LTB4 in a cellular system. Compounds are combined with heparinized human whole blood and incubated for 15 minutes at 37° C. Calcimycin (20 μM final, prepared in phosphate-buffered saline, pH 7.4) is then added and the mixture is incubated for another 30 minutes at 37° C. The samples are centrifuged for 5 min at low speed (1500×g) and the plasma layer is removed. Plasma LTB4 concentrations are then measured using an antibody-based homogenous time-resolved fluorescence method (CisBio, Bedford, Mass.).

[2] = target: T1, recombinant human FLAP protein (Homo sapiens, UniProt P20292); test: FLAP binding assay (SPA, displacement of [125I]L-691,831); conditions: membranes of sf9 cells expressing human FLAP, [125I]L-691,831 probe; read-out: hFLAP binding IC50
T1 construct: made in house; host or cells: Sf9 insect cells (membrane fraction, 100,000 x g pellet)
T1 sequence (P20292 1-161): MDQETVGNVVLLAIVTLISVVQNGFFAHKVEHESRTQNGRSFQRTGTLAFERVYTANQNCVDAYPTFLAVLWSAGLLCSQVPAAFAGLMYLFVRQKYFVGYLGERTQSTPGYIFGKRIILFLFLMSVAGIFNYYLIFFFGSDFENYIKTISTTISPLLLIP
How it was run: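 Membranes from sf9 cells expressing human FLAP (5 μg/well) were bound to WGA SPA beads (200 μg/well). Nonspecific binding was defined with 10 μM unlabelled L-691,831.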

Row | IC50 [1] | IC50 [2] | Compound
1 | > 3000 nM | 12.3 nM | CCOC(=O)c1sc2ccc(NC(=O)C3(c4ccc(-c5cnc(N)nc5)cc4)CCOCC3)cc2c1C [Example 43, ethyl 5-[({4-[4-(2-aminopyrimidin-5-yl)phenyl]tetrahydro-2H-pyran-4-yl}carbonyl)amino]-3-methyl-1-benzothiophene-2-carboxylate]
2 | 459 nM | 6.2 nM | Nc1ncc(-c2ccc(C3(C(=O)Nc4ccc(-c5cccnc5)cc4)CCOCC3)cc2)cn1 [Example 45, 4-[4-(2-aminopyrimidin-5-yl)phenyl]-N-[4-(pyridin-3-yl)phenyl]tetrahydro-2H-pyran-4-carboxamide]
3 | > 3000 nM | 180 nM | Cc1cc(NC(=O)C2(c3ccc(-c4cnc(N)nc4)cc3)CCOCC2)cc(C(F)(F)F)c1 [Example 46, 4-[4-(2-aminopyrimidin-5-yl)phenyl]-N-[3-methyl-5-(trifluoromethyl)phenyl] tetrahydro-2H-pyran-4-carboxamide]
4 | 3200 nM | 65 nM | CC(C)(C)c1cc(NC(=O)C2(c3ccc(-c4cnc(N)nc4)cc3)CCOCC2)ccn1 [Example 47, 4-[4-(2-aminopyrimidin-5-yl)phenyl]-N-(2-tert-butylpyridin-4-yl)tetrahydro-2H-pyran-4-carboxamide]
5 | 1630 nM | 84 nM | Nc1ncc(-c2ccc(C3(C(=O)Nc4ccc(C(F)(F)F)nc4)CCOCC3)cc2)cn1 [Example 48, 4-[4-(2-aminopyrimidin-5-yl)phenyl]-N-[6-(trifluoromethyl)pyridin-3-yl]tetrahydro-2H-pyran-4-carboxamide]
6 | 534 nM | 27 nM | Nc1ncc(-c2ccc(C3(C(=O)Nc4ccc(OCc5ccccc5)c(Cl)c4)CCOCC3)cc2)cn1 [Example 49, 4-[4-(2-aminopyrimidin-5-yl)phenyl]-N-[4-(benzyloxy)-3-chlorophenyl]tetrahydro-2H-pyran-4-carboxamide]
7 | 1690 nM | 18 nM | Nc1ncc(-c2ccc(C3(C(=O)Nc4ccc5cnccc5c4)CCOCC3)cc2)cn1 [Example 51, 4-[4-(2-aminopyrimidin-5-yl)phenyl]-N-(isoquinolin-6-yl)tetrahydro-2H-pyran-4-carboxamide]
8 | 1810 nM | 63.5 nM | Cc1nc(NC(=O)C2(c3ccc(-c4cnc(N)nc4)cc3)CCOCC2)ccc1C#N [Example 52, 4-[4-(2-aminopyrimidin-5-yl)phenyl]-N-(5-cyano-6-methylpyridin-2-yl)tetrahydro-2H-pyran-4-carboxamide]
9 | 1120 nM | 44.5 nM | Nc1ncc(-c2ccc(C3(C(=O)Nc4ccc(Cc5ccccc5)cc4)CCOCC3)cc2)cn1 [Example 54, 4-[4-(2-aminopyrimidin-5-yl)phenyl]-N-(4-benzylphenyl)tetrahydro-2H-pyran-4-carboxamide]
10 | > 3000 nM | 29 nM | Nc1ncc(-c2ccc(C3(C(=O)Nc4nc5ccccc5s4)CCOCC3)cc2)cn1 [Example 55, 4-[4-(2-aminopyrimidin-5-yl)phenyl]-N-(1,3-benzothiazol-2-yl)tetrahydro-2H-pyran-4-carboxamide]
11 | > 3000 nM | 170 nM | Nc1ncc(-c2ccc(C3(C(=O)Nc4cc(-c5ccncc5)no4)CCOCC3)cc2)cn1 [Example 58, 4-[4-(2-aminopyrimidin-5-yl)phenyl]-N-[3-(pyridin-4-yl)-1,2-oxazol-5-yl]tetrahydro-2H-pyran-4-carboxamide]
12 | > 3000 nM | 12.7 nM | Nc1ncc(-c2ccc(C3(C(=O)Nc4nc(-c5ccccn5)cs4)CCOCC3)cc2)cn1 [Example 59, 4-[4-(2-aminopyrimidin-5-yl)phenyl]-N-[4-(pyridin-2-yl)-1,3-thiazol-2-yl]tetrahydro-2H-pyran-4-carboxamide]
13 | 310 nM | 3.5 nM | Nc1ncc(-c2ccc(C3(C(=O)Nc4nc(-c5ccncc5)cs4)CCOCC3)cc2)cn1 [Example 60, 4-[4-(2-aminopyrimidin-5-yl)phenyl]-N-[4-(pyridin-4-yl)-1,3-thiazol-2-yl]tetrahydro-2H-pyran-4-carboxamide]
14 | > 3000 nM | 94 nM | Nc1ncc(-c2ccc(C3(C(=O)Nc4cccc(OCc5ccccc5)c4)CCOCC3)cc2)cn1 [Example 61, 4-[4-(2-aminopyrimidin-5-yl)phenyl]-N-[3-(benzyloxy)phenyl]tetrahydro-2H-pyran-4-carboxamide]
15 | > 3000 nM | 33.5 nM | Cc1ccc(NC(=O)C2(c3ccc(-c4cnc(N)nc4)cc3)CCOCC2)cc1C#N [Example 62, 4-[4-(2-aminopyrimidin-5-yl)phenyl]-N-(3-cyano-4-methylphenyl)tetrahydro-2H-pyran-4-carboxamide]
16 | 812 nM | 30.5 nM | Nc1ncc(-c2ccc(C3(C(=O)Nc4ccc(Oc5ccc(Cl)cc5)cc4)CCOCC3)cc2)cn1 [Example 63, 4-[4-(2-aminopyrimidin-5-yl)phenyl]-N-[4-(4-chlorophenoxy)phenyl]tetrahydro-2H-pyran-4-carboxamide]
17 | 850 nM | 48 nM | Nc1ncc(-c2ccc(C3(C(=O)Nc4ccc(S(=O)(=O)N5CCOCC5)cc4)CCOCC3)cc2)cn1 [Example 64, 4-[4-(2-aminopyrimidin-5-yl)phenyl]-N-[4-(morpholin-4-ylsulfonyl)phenyl]tetrahydro-2H-pyran-4-carboxamide]
18 | 905 nM | 14 nM | Nc1ncc(-c2ccc(C3(C(=O)Nc4cnc(-c5ccccc5)nc4)CCOCC3)cc2)cn1 [Example 65, 4-[4-(2-aminopyrimidin-5-yl)phenyl]-N-(2-phenylpyrimidin-5-yl)tetrahydro-2H-pyran-4-carboxamide]
19 | 1780 nM | 11.9 nM | Nc1ncc(-c2ccc(C3(C(=O)Nc4ccc(Cl)c(F)c4)CCOCC3)cc2)cn1 [Example 66, 4-[4-(2-aminopyrimidin-5-yl)phenyl]-N-(4-chloro-3-fluorophenyl)tetrahydro-2H-pyran-4-carboxamide]
20 | 1210 nM | 14.5 nM | Nc1ncc(-c2ccc(C3(C(=O)Nc4ccc(-c5ccccc5)nc4)CCOCC3)cc2)cn1 [Example 67, 4-[4-(2-aminopyrimidin-5-yl)phenyl]-N-(6-phenylpyridin-3-yl)tetrahydro-2H-pyran-4-carboxamide]
21 | 1210 nM | 68.5 nM | CC(C)n1ncc2cc(NC(=O)C3(c4ccc(-c5cnc(N)nc5)cc4)CCOCC3)cnc21 [Example 68, 4-[4-(2-aminopyrimidin-5-yl)phenyl]-N-[1-(propan-2-yl)-1H-pyrazolo[3,4-b]pyridin-5-yl)tetrahydro-2H-pyran-4-carboxamide]
22 | > 3000 nM | 42 nM | Cc1nc(-c2cccc(NC(=O)C3(c4ccc(-c5cnc(N)nc5)cc4)CCOCC3)c2)cs1 [Example 70, 4-[4-(2-aminopyrimidin-5-yl)phenyl]-N-[3-(2-methyl-1,3-thiazol-4-yl)phenyl]tetrahydro-2H-pyran-4-carboxamide]
23 | > 3000 nM | 190 nM | Nc1ncc(-c2ccc(C3(C(=O)Nc4ccc5c(c4)C(=O)OC5)CCOCC3)cc2)cn1 [Example 71, 4-[4-(2-aminopyrimidin-5-yl)phenyl]-N-(3-oxo-1,3-dihydro-2-benzofuran-5-yl)tetrahydro-2H-pyran-4-carboxamide]
24 | 244 nM | 28.3 nM | Nc1ncc(-c2ccc(C3(C(=O)Nc4ccc(N5CCOCC5)c(Cl)c4)CCOCC3)cc2)cn1 [Example 72, 4-[4-(2-aminopyrimidin-5-yl)phenyl]-N-[3-chloro-4-(mopholin-4-yl)phenyl]tetrahydro-2H-pyran-4-carboxamide]
25 | 1500 nM | 53.5 nM | COC(=O)c1sc(-c2ccc(Cl)cc2)cc1NC(=O)C1(c2ccc(-c3cnc(N)nc3)cc2)CCOCC1 [Example 73, methyl 3-[({4-[4-(2-aminopyrimidin-5-yl)phenyl]tetrahydro-2H-pyran-4-yl}carbonyl)amino]-5-(4-chlorophenyl)thiophene-2-carboxylate]
26 | > 3000 nM | 97 nM | CC(C)(C)c1cccc(NC(=O)C2(c3ccc(-c4cnc(N)nc4)cc3)CCOCC2)c1 [Example 74, 4-[4-(2-aminopyrimidin-5-yl)phenyl]-N-(3-tert-butylphenyl)tetrahydro-2H-pyran-4-carboxamide]
27 | > 3000 nM | 68 nM | Cc1nc2cc(NC(=O)C3(c4ccc(-c5cnc(N)nc5)cc4)CCOCC3)ccc2s1 [Example 75, 4-[4-(2-aminopyrimidin-5-yl)phenyl]-N-(2-methyl-1,3-benzothiazol-5-yl)tetrahydro-2H-pyran-4-carboxamide]
28 | > 3000 nM | 52.5 nM | COc1ccc(Oc2ccccc2)cc1NC(=O)C1(c2ccc(-c3cnc(N)nc3)cc2)CCOCC1 [Example 76, 4-[4-(2-aminopyrimidin-5-yl)phenyl]-N-(2-methoxy-5-phenoxyphenyl)tetrahydro-2H-pyran-4-carboxamide]
29 | > 3000 nM | 113 nM | CCN(CC)S(=O)(=O)c1cccc(NC(=O)C2(c3ccc(-c4cnc(N)nc4)cc3)CCOCC2)c1 [Example 78, 4-[4-(2-aminopyrimidin-5-yl)phenyl]-N-[3-(diethylsulfamoyl)phenyl] tetrahydro-2H-pyran-4-carboxamide]
